Measurements from patent publication US9604983B2, “Herbicidal 3-(2-benzyloxyphenyl)-2,4-dihydroxy-1,8-naphthyridine derivatives” (SYNGENTA LIMITED, priority 2013, dated 2017).

What was measured:
Assay in all cases: Post-emergence efficacy, glasshouse pot test
Assay type in all cases: in vivo
Details in all cases: post-emergence application at 1000 g/ha; evaluated after 13 days; five point scale
[1] = tested on: Ipomoea hederacea (IPOHE)
Experimental: (§1) B1 Post-emergence Efficacy Seeds of a variety of test species are sown in standard soil in pots:—Solanum nigrum (SOLNI), Amaranthus retoflexus (AMARE), Setaria faberi (SETFA), Alopecurus myosuroides (ALOMY), Echinochloa crus-galli (ECHCG), Ipomoea hederacea (IPOHE). After 8 days cultivation (post-emergence) under controlled conditions in a glasshouse (at 24/16° C., day/night; 14 hours light; 65% humidity), the plants are sprayed with an aqueous spray solution derived from the formulation of the technical active ingredient in acetone/water (50:50) solution containing 0.5% Tween 20 (polyoxyethelyene sorbitan monolaurate, CAS RN 9005-64-5). Compounds are applied at 1000 g/ha. The test plants are then grown in a glasshouse under controlled conditions in a glasshouse (at 24/16° C., day/night; 14 hours light; 65% humidity) and watered twice daily. After 13 days, the test is evaluated for the percentage damage caused to the plant. The biological activities are shown below in Table 13, on a five point scale (5=80-100%; 4=60-79%; 3=40-59%; 2=20-39%; 1=0-19%).

Solanum nigrum (SOLNI) = tested on: Solanum nigrum (SOLNI)
Experimental: as §1

[2] = tested on: Amaranthus retoflexus (AMARE)
Experimental: as §1

[3] = tested on: Alopecurus myosuroides (ALOMY)
Experimental: as §1

Setaria faberi (SETFA) = tested on: Setaria faberi (SETFA)
Experimental: as §1

[4] = tested on: Echinochloa crus-galli (ECHCG)
Experimental: as §1

Row | Compound | percentage damage caused to the plant, IPOHE [1] | percentage damage caused to the plant, SOLNI (Solanum nigrum (SOLNI)) | percentage damage caused to the plant, AMARE [2] | percentage damage caused to the plant, ALOMY [3] | percentage damage caused to the plant, SETFA (Setaria faberi (SETFA)) | percentage damage caused to the plant, ECHCG [4]
1 | O=c1c(-c2c(Cl)ccc(Cl)c2OCc2ccc(Cl)c(Cl)c2)c(O)c2cccnc2n1CC(F)F [Compound 4.005] | 5 (5=80-100%) | 5 (5=80-100%) | 5 (5=80-100%) | 1 (1=0-19%) | 1 (1=0-19%) | 1 (1=0-19%)
2 | O=c1c(-c2c(Cl)ccc(Cl)c2OCc2ccc(C(F)(F)F)cc2)c(O)c2cccnc2n1CC(F)F [Compound 4.006] | 5 (5=80-100%) | 5 (5=80-100%) | 5 (5=80-100%) | 2 (2=20-39%) | 2 (2=20-39%) | 2 (2=20-39%)
3 | COc1ccnc2c1c(O)c(-c1c(Cl)ccc(Cl)c1OCc1ccccc1)c(=O)n2CC(F)F [Compound 4.007] | 5 (5=80-100%) | 5 (5=80-100%) | 5 (5=80-100%) | 3 (3=40-59%) | 2 (2=20-39%) | 3 (3=40-59%)
4 | O=c1c(-c2c(Cl)ccc(Cl)c2OCc2ccccc2)c(O)c2nccnc2n1CC(F)F [Compound 4.008] | 5 (5=80-100%) | 5 (5=80-100%) | 5 (5=80-100%) | 4 (4=60-79%) | 5 (5=80-100%) | 5 (5=80-100%)
5 | C#CCn1c(=O)c(-c2c(F)ccc(Cl)c2OCc2ccccc2)c(OC(=O)C(C)C)c2cccnc21 [Compound 5.001] | 5 (5=80-100%) | 5 (5=80-100%) | 5 (5=80-100%) | 1 (1=0-19%) | 2 (2=20-39%) | 3 (3=40-59%)
6 | C#CCn1c(=O)c(-c2c(F)ccc(Cl)c2OCc2ccccc2)c(OC(=O)C(C)C)c2nccnc21 [Compound 5.003] | 5 (5=80-100%) | 5 (5=80-100%) | 5 (5=80-100%) | 2 (2=20-39%) | 5 (5=80-100%) | 2 (2=20-39%)
7 | C#CCn1c(=O)c(-c2c(F)ccc(Cl)c2OCc2ccccc2)c(O)c2cccnc21 [Compound 6.001] | 5 (5=80-100%) | 5 (5=80-100%) | 5 (5=80-100%) | 3 (3=40-59%) | 2 (2=20-39%) | 4 (4=60-79%)
8 | C#CCn1c(=O)c(-c2c(F)ccc(Cl)c2OCc2ccccc2)c(O)c2c(OC)ccnc21 [Compound 6.002] | 5 (5=80-100%) | 5 (5=80-100%) | 5 (5=80-100%) | 5 (5=80-100%) | 5 (5=80-100%) | 5 (5=80-100%)
9 | C#CCn1c(=O)c(-c2c(F)ccc(Cl)c2OCc2ccccc2)c(O)c2nccnc21 [Compound 6.003] | 5 (5=80-100%) | 5 (5=80-100%) | 5 (5=80-100%) | 4 (4=60-79%) | 5 (5=80-100%) | 4 (4=60-79%)
10 | CC(C)C(=O)Oc1c(-c2c(F)ccc(Cl)c2OCc2ccccc2)c(=O)n(CC(F)F)c2ncccc12 [Compound 7.001] | 5 (5=80-100%) | 5 (5=80-100%) | 5 (5=80-100%) | 1 (1=0-19%) | 1 (1=0-19%) | 1 (1=0-19%)
11 | COc1ccnc2c1c(OC(C)=O)c(-c1c(F)ccc(Cl)c1OCc1ccccc1)c(=O)n2CC(F)F [Compound 7.002] | 5 (5=80-100%) | 5 (5=80-100%) | 5 (5=80-100%) | 4 (4=60-79%) | 5 (5=80-100%) | 5 (5=80-100%)
12 | CC(C)C(=O)Oc1c(-c2c(F)ccc(Cl)c2OCc2ccccc2)c(=O)n(CC(F)F)c2nccnc12 [Compound 7.003] | 5 (5=80-100%) | 5 (5=80-100%) | 5 (5=80-100%) | 2 (2=20-39%) | 5 (5=80-100%) | 2 (2=20-39%)
13 | O=c1c(-c2c(F)ccc(Cl)c2OCc2ccccc2)c(O)c2cccnc2n1CC(F)F [Compound 8.001] | 5 (5=80-100%) | 5 (5=80-100%) | 5 (5=80-100%) | 3 (3=40-59%) | 1 (1=0-19%) | 3 (3=40-59%)
14 | COc1ccnc2c1c(O)c(-c1c(F)ccc(Cl)c1OCc1ccccc1)c(=O)n2CC(F)F [Compound 8.002] | 5 (5=80-100%) | 5 (5=80-100%) | 5 (5=80-100%) | 4 (4=60-79%) | 4 (4=60-79%) | 4 (4=60-79%)
15 | O=c1c(-c2c(F)ccc(Cl)c2OCc2ccccc2)c(O)c2nccnc2n1CC(F)F [Compound 8.003] | 5 (5=80-100%) | 5 (5=80-100%) | 5 (5=80-100%) | 3 (3=40-59%) | 5 (5=80-100%) | 4 (4=60-79%)
16 | C#CCn1c(=O)c(-c2cccc(Cl)c2OCc2ccccc2)c(OC(=O)C(C)C)c2cccnc21 [Compound 9.001] | 5 (5=80-100%) | 5 (5=80-100%) | 3 (3=40-59%) | 1 (1=0-19%) | 1 (1=0-19%) | 2 (2=20-39%)
17 | C#CCn1c(=O)c(-c2cccc(Cl)c2OCc2ccccc2)c(OC(=O)C(C)C)c2nccnc21 [Compound 9.003] | 5 (5=80-100%) | 5 (5=80-100%) | 4 (4=60-79%) | 2 (2=20-39%) | 5 (5=80-100%) | 5 (5=80-100%)
18 | C#CCn1c(=O)c(-c2cccc(Cl)c2OCc2ccccc2)c(O)c2cccnc21 [Compound 10.001] | 5 (5=80-100%) | 5 (5=80-100%) | 4 (4=60-79%) | 1 (1=0-19%) | 1 (1=0-19%) | 1 (1=0-19%)
19 | C#CCn1c(=O)c(-c2cccc(Cl)c2OCc2ccccc2)c(O)c2nccnc21 [Compound 10.003] | 5 (5=80-100%) | 5 (5=80-100%) | 5 (5=80-100%) | 4 (4=60-79%) | 5 (5=80-100%) | 5 (5=80-100%)
20 | CC(C)C(=O)Oc1c(-c2cccc(Cl)c2OCc2ccccc2)c(=O)n(CC(F)F)c2ncccc12 [Compound 11.001] | 5 (5=80-100%) | 5 (5=80-100%) | 5 (5=80-100%) | 1 (1=0-19%) | 1 (1=0-19%) | 1 (1=0-19%)
21 | CC(C)C(=O)Oc1c(-c2cccc(Cl)c2OCc2ccccc2)c(=O)n(CC(F)F)c2nccnc12 [Compound 11.003] | 5 (5=80-100%) | 5 (5=80-100%) | 5 (5=80-100%) | 2 (2=20-39%) | 5 (5=80-100%) | 5 (5=80-100%)
